In ChEMBL document CHEMBL1201862, “PubChem BioAssay data set” (2004):
Active and inactive are the calls of the source.

Tests used:
[1] = Luminescence Cell-Based Dose Retest to Confirm Inhibitors of Cancer Stem Cells. [Related pubchem assays (depositor defined):AID2717, AID2721]; assay type: functional; conditions: Homo sapiens
[2] = A Cell Based Secondary Assay To Explore Cytotoxicity of Compounds that Sensitize Mycobacterium Tuberculosis to Beta-Lactam Antibiotics.; assay type: functional
Escherichia coli = test: microbe, parasite or virus in culture
[3] = biological target: Dual specificity protein kinase CLK1 (Homo sapiens, UniProt P49759); test: inhibition of human CLK1 activity – biochemical, cherry-picked samples, selectivity assay for Dyrk1A inhibitor project, dose response (AID 588811)
Dual specificity protein kinase CLK1, sequence (P49759 whole entry): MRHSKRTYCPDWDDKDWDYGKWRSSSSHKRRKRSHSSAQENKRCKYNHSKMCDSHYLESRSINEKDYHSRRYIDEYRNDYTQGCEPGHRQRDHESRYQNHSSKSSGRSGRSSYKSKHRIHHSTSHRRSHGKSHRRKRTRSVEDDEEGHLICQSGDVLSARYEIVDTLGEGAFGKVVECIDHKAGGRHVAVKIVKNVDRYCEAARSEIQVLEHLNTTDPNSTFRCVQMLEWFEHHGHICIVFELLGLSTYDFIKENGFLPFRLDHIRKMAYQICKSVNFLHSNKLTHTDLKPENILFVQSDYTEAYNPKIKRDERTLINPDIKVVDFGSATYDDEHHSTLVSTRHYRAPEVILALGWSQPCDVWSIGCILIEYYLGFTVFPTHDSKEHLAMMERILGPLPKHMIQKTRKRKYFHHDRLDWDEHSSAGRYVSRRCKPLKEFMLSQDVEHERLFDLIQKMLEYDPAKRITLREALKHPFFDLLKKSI

[4] = biological target: T1, Rac GTPase-activating protein 1 (Homo sapiens, UniProt Q9H0H5); test: blockers of MgcRacGAP-driven Rac1 GTP hydrolysis – biochemical, ADP Hunter fluorescence, primary and confirmatory, confirmation (AID 624330); assay type: functional
T1 sequence (Q9H0H5 whole entry): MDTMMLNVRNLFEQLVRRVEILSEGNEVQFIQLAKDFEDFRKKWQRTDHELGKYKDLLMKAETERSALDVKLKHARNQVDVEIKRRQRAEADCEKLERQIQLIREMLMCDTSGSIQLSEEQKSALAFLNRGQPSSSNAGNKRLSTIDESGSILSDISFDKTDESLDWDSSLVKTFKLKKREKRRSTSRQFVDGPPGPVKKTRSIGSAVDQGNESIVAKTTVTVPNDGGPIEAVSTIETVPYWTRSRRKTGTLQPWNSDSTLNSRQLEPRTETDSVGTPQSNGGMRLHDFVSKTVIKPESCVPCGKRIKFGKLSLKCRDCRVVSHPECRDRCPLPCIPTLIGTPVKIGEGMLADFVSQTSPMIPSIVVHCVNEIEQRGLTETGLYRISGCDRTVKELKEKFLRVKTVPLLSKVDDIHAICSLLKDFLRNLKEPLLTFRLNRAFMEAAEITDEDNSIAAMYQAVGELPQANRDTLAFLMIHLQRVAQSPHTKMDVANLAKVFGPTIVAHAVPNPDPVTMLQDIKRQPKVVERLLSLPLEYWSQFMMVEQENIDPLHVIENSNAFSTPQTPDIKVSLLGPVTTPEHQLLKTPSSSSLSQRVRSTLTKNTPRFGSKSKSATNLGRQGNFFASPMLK

[5] = viability loss in HeLa cells – cytotoxicity control for MgcRacGAP inhibitor project, dose response (AID 624300); assay type: functional
[6] = biological target: Glucose-6-phosphate 1-dehydrogenase (Homo sapiens, UniProt P11413); test: inhibition of Homo sapiens G6PD, dose series – biochemical, fluorescence, selectivity assay for P. falciparum G6PD inhibitor project, dose response (AID 504792); assay type: functional
Glucose-6-phosphate 1-dehydrogenase, sequence (P11413 whole entry): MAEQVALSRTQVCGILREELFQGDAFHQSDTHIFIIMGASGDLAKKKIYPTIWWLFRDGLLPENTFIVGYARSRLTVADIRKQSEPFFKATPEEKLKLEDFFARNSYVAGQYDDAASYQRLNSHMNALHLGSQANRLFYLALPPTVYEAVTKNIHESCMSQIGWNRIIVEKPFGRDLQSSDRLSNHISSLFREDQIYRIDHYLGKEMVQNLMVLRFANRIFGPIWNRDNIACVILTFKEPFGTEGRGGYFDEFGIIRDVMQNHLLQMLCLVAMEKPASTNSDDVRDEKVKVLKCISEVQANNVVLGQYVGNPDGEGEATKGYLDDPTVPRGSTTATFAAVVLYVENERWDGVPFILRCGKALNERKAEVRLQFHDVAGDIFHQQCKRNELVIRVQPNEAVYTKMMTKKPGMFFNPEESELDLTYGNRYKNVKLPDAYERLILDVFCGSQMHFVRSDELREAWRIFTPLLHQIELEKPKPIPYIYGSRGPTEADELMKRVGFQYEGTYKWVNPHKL

[7] = HEK-293T viability loss, compound-treated – cell-based, uHTS hits, cytotoxicity control for B/T-cell NF-kB inhibitor project, dose response (AID 489019); assay type: functional;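 note: IC50 reflects cytotoxicity as loss of cell viability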
[8] = biological target: T2, Microphthalmia-associated transcription factor (Homo sapiens, UniProt O75030); test: reducers of TRPM1 reporter luminescence, concentration series – cell-based, SK-MEL-5, cherry-picked, set 3, MITF inhibitor project, dose response (AID 493073); assay type: functional;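 note: SK-MEL-5 melanoma cells with luciferase driven by the MITF target TRPM1 promoter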
T2 sequence (O75030 whole entry): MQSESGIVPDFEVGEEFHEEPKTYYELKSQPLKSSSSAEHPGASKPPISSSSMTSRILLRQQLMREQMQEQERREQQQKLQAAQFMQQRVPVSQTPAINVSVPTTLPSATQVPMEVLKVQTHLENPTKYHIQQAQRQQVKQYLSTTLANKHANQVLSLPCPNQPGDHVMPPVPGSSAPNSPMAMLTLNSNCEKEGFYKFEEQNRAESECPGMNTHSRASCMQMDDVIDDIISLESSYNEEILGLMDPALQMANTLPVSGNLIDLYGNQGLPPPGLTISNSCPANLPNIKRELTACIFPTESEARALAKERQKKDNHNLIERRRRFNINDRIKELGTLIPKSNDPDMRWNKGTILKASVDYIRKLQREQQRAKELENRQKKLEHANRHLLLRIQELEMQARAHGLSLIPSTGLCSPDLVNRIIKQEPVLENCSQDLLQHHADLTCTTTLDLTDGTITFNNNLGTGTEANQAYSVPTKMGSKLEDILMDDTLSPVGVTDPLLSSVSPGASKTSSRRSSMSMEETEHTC

Jurkat = test: blockers of NF-kB activation in T cells – Jurkat, luciferase reporter, luminescence, B- and T-cell, dose response (AID 489004); assay type: functional, cell-based; conditions: Homo sapiens;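 note: NF-kB luciferase reporter Jurkat cells stimulated with PMA plus ionomycin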
Hexokinase-1 = Hexokinase-1 (Homo sapiens, UniProt P19367); test: SAR analysis of small molecule inhibitors of hexokinase domain containing I (HKDC1) in the hexokinase 1 selectivity assay. [Related pubchem assays (depositor defined):AID493160, AID493190]; assay type: functional
Hexokinase-1, sequence (P19367 whole entry, the tested form may be a part): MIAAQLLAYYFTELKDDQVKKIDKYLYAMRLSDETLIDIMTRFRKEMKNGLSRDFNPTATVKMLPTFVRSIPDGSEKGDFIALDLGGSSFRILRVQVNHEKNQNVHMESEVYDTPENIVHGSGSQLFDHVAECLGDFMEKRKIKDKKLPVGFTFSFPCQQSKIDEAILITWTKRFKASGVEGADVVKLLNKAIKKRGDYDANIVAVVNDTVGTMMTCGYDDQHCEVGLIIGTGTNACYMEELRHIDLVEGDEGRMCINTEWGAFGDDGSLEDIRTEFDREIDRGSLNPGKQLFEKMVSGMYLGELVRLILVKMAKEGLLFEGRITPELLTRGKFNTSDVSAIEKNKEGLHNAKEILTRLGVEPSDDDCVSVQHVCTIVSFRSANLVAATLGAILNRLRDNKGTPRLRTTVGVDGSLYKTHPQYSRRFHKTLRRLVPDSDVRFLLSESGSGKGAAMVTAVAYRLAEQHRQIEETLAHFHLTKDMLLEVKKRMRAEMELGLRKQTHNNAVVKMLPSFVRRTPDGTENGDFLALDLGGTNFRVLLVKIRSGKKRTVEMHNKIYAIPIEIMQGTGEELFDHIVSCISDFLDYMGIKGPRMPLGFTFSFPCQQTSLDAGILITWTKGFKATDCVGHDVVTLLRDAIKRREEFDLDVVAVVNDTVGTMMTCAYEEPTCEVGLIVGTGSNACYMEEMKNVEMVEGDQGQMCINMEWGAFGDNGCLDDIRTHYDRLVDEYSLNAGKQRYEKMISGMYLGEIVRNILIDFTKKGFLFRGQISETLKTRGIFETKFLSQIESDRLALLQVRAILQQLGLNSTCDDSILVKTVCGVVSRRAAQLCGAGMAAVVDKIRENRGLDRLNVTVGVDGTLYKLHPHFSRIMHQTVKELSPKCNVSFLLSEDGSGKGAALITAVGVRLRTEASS

Hexokinase HKDC1 = Hexokinase HKDC1 (Homo sapiens, UniProt Q2TB90); test: SAR analysis of small molecule inhibitors of hexokinase domain containing I (HKDC1). [Related pubchem assays (depositor defined):AID493160, AID493190]; assay type: functional
Hexokinase HKDC1, sequence (Q2TB90 whole entry, the tested form may be a part): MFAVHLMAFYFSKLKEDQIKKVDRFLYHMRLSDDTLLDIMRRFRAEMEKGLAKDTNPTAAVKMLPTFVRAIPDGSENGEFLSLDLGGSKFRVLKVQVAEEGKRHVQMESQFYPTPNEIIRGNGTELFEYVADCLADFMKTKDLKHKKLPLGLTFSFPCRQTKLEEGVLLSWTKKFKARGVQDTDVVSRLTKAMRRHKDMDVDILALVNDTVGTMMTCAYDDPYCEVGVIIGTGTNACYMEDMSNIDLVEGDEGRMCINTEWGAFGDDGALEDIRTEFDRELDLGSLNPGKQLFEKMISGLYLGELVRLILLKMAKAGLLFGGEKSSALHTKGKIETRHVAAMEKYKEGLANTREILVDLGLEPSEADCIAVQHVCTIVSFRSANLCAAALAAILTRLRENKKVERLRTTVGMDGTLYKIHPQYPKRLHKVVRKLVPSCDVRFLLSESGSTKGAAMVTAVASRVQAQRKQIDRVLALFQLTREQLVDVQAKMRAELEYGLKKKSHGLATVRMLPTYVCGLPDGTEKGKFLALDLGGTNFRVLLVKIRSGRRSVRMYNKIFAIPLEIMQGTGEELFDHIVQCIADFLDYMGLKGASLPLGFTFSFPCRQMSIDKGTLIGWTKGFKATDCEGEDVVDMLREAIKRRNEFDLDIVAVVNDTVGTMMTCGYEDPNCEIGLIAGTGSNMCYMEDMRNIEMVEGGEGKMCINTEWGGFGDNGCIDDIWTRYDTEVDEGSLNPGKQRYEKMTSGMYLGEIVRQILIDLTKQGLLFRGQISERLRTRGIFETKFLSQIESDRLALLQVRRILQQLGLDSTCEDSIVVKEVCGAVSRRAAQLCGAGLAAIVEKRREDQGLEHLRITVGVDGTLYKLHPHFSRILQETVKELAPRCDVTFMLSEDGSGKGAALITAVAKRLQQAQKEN

Caspase-3 = biological target: T3, Caspase-3 (Homo sapiens, UniProt P42574); test: inhibition of recombinant caspase-3 activity – biochemical, luminescence, set 2, selectivity assay for SENP protease inhibitor project, SAR follow-up (AID 588599); assay type: functional
T3 sequence (P42574 whole entry): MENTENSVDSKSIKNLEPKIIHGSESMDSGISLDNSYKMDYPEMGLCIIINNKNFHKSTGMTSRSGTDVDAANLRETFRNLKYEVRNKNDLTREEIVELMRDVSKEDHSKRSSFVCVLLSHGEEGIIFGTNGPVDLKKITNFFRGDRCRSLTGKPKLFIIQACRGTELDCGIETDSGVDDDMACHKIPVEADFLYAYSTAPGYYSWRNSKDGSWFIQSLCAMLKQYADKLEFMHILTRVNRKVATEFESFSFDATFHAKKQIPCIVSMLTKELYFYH

[9] = biological target: T4, Sentrin-specific protease 6 (Homo sapiens, UniProt Q9GZR1); test: inhibition of human SENP6 catalytic domain – biochemical, luminescence, set 2, SAR follow-up (AID 588598); assay type: functional
T4 sequence (Q9GZR1 whole entry): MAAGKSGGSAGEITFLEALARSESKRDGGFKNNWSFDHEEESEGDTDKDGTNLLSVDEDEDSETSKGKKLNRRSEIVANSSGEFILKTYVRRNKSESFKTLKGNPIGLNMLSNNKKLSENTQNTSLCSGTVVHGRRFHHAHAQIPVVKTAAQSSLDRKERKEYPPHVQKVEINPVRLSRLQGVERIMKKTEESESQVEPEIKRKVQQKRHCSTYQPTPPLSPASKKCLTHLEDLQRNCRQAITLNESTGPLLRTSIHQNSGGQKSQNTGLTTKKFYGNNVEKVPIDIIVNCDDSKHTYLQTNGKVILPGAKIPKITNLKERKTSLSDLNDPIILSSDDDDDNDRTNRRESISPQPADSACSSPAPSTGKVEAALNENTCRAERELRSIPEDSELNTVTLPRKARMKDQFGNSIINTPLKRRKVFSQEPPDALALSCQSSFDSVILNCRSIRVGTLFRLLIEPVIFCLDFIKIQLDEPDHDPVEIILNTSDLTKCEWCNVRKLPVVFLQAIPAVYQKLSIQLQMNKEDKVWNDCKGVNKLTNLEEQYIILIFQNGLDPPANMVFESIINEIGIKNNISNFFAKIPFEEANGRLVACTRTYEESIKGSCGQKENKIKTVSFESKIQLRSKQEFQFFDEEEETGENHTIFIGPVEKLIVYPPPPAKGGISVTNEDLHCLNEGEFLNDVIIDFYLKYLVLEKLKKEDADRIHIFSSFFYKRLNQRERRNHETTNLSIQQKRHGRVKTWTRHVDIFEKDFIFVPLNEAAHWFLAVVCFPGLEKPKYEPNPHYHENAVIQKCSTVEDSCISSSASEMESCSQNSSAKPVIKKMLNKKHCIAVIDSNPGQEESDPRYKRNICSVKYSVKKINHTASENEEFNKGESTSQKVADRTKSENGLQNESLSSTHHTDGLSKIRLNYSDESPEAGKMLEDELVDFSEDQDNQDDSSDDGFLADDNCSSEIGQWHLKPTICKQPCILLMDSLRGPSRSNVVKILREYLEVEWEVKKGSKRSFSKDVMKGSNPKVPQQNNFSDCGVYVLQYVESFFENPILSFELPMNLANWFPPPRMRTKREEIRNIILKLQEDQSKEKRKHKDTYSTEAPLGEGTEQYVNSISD

[10] = biological target: T5, Sentrin-specific protease 8 (Homo sapiens, UniProt Q96LD8); test: inhibition of sentrin protease 8 – biochemical, luminescence, set 2, SAR follow-up (AID 588601); assay type: functional
T5 sequence (Q96LD8 whole entry): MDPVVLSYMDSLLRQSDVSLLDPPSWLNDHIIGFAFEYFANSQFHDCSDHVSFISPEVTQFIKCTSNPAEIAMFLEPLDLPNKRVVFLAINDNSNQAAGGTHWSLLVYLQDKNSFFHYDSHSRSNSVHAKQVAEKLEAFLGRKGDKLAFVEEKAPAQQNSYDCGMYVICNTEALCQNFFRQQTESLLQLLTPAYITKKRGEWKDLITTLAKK

[11] = biological target: T6, Sentrin-specific protease 7 (Homo sapiens, UniProt Q9BQF6); test: inhibition of human SENP7 cleavage activity – biochemical, luminescence, set 2, SAR follow-up (AID 588600); assay type: functional
T6 sequence (Q9BQF6 whole entry): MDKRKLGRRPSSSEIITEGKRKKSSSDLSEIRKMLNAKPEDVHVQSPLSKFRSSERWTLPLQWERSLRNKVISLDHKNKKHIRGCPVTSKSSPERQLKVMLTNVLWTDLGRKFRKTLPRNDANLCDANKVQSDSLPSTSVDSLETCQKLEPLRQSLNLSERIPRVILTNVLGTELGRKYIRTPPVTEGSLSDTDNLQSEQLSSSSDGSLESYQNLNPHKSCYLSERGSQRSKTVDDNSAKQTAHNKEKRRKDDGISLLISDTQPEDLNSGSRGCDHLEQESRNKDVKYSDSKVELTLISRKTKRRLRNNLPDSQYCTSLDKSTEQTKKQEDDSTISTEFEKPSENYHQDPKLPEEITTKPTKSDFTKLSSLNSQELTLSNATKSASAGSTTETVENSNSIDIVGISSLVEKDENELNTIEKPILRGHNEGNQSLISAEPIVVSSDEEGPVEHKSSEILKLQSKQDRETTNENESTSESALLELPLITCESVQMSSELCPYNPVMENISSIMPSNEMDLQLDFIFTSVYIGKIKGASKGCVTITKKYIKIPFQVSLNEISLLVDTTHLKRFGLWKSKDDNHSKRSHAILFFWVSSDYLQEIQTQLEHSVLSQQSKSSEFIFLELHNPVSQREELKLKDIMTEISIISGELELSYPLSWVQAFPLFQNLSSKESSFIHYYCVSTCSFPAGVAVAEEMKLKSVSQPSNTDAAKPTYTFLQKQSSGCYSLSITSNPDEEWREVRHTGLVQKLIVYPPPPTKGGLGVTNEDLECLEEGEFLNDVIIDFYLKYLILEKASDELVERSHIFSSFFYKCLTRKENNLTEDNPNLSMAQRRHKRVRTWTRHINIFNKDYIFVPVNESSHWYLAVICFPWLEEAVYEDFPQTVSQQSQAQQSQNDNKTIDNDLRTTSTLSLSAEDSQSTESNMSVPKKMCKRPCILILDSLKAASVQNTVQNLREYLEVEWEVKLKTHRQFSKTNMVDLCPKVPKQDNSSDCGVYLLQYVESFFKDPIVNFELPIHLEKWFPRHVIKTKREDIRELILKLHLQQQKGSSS

[12] = HEK-293T viability loss after treatment – luminescence, T-cell screen hits, cytotoxicity control for TCR NF-kB inhibitor project, dose response (AID 489026); assay type: functional, cell-based;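 note: cells exposed to compound about 14 hours before the viability readout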
Cysteine protease ATG4B = biological target: T7, Cysteine protease ATG4B (Homo sapiens, UniProt Q9Y4P1); test: autophagin-1 cysteine protease inhibition – biochemical, fluorescence, set 2, dose response (AID 588584); assay type: functional
T7 sequence (Q9Y4P1 whole entry): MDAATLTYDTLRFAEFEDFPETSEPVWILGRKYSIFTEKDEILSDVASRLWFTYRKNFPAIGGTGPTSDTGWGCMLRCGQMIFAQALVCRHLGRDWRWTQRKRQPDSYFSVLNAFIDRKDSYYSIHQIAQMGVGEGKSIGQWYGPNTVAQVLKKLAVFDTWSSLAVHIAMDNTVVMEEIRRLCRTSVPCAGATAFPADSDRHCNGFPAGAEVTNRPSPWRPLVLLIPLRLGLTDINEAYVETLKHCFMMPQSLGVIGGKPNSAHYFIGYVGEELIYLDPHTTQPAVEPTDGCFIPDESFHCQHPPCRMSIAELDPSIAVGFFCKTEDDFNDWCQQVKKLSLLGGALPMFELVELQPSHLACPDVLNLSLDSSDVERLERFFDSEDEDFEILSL

Phospholipase A2 = Phospholipase A2 (Homo sapiens, UniProt P04054); test: phospholipase A2 activity inhibition – biochemical, set 2, counter-screen for ATG4B inhibitor project, dose response (AID 588586); assay type: functional
Phospholipase A2, sequence (P04054 whole entry): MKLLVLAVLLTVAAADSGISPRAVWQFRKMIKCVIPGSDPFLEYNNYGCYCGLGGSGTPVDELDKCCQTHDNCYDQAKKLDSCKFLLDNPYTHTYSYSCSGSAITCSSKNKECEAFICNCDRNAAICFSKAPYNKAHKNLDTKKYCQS

With `Cc1nc(Nc2ccc(Cl)cc2Cl)sc1C(=O)Nc1ccccc1` the AC50 [1] was 7.83 µM (active), the CC50 [2] was > 40 µM (active) and the AC50 (Escherichia coli) was 56.1 µM (active).

For `Cc1ccc(CNc2ncnc3ccc(-c4ccoc4C)cc23)o1`, the AC50 [3] was 0.695 µM (active).

In the case of `O=C1C(=Cc2cccc(O)c2O)SC(=S)N1CCCN1CCOCC1`, the IC50 [4] is reported as 45.5 µM (active), the CC50 [5] is reported as 100 µM (active) and the IC50 [6] is reported as > 80 µM (inactive).

With `O=C(COC(=O)c1cccnc1O)Nc1ccc(N2CCCCC2)cc1` the IC50 [7] was > 80 µM (inactive), the AC50 [8] was 1.03 µM (active) and the IC50 (Jurkat) was 0.19 µM (active).

For `O=c1c2ccccc2nc(/C=C/c2ccncc2)n1Cc1ccccc1`, the IC50 (Hexokinase-1) was > 80 µM (inactive) and the IC50 (Hexokinase HKDC1) was > 80 µM (inactive).

With `COc1ccc(N2CC(C(=O)N/N=C/c3c[nH]c4ccccc34)CC2=O)cc1` (stereo not given) the IC50 (Caspase-3) was > 99 µM (inactive), the IC50 [9] was > 99 µM (inactive) and the IC50 [10] was > 99 µM (inactive). The IC50 [11] was > 99 µM (inactive).

For `CC1=Nc2ccccc2/C1=C\c1sc(Nc2ccc(C)cc2)nc1O`, the AC50 [1] was 0.546 µM (active), the IC50 [12] was 45.8 µM (inactive) and the IC50 (Cysteine protease ATG4B) was 30.6 µM (inactive). For the same molecule, the IC50 (Phospholipase A2) was 22.3 µM (inactive).
